For nine molecules, half-life results are on record in ChEMBL document CHEMBL1795248, “N,N'-Dialkylaminoalkylcarbonyl (DAAC) prodrugs and aminoalkylcarbonyl (AAC) prodrugs of 4-hydroxyacetanilide and naltrexone with improved skin permeation properties” (Bioorg Med Chem Lett, 2011).

The data set in a line: Chemical stability of the compound assessed as half life in phosphate buffer at pH 6.0. In kind it is physicochemical.

Regarding `CC(=O)Nc1ccc(OC(=O)CN(C)C)cc1.Cl`, the half-life worked out at 1.28 h. With `CC(=O)Nc1ccc(OC(=O)CCN(C)C)cc1.Cl` the figure was 1.88 h. With `CCN(CC)CC(=O)Oc1ccc(NC(C)=O)cc1.Cl` the figure was 1.76 h; with `CCN(CC)CCC(=O)Oc1ccc(NC(C)=O)cc1.Cl`, 1.32 h; with `CC(=O)Nc1ccc(OC(=O)CCN2CCCCC2)cc1.Cl`, 1.33 h. Turning to `CC(C)[C@H](N)C(=O)Oc1ccc2c3c1O[C@H]1C(=O)CC[C@@]4(O)[C@@H](C2)N(CC2CC2)CC[C@]314.O=C(O)C(F)(F)F`, the half-life was 0.53 h.

For the molecule `CC(=O)Nc1ccc(OC(=O)[C@H](C)N)cc1.Cl` [ACETAMINOPHEN ALANINATE HYDROCHLORIDE], the half-life amounted to 0.539 h. The result for `CC(=O)Nc1ccc(OC(=O)[C@@H]2CCCN2)cc1.Cl` [ACETAMINOPHEN PROLINATE HYDROCHLORIDE] reads 0.248 h. The result for `CC(=O)Nc1ccc(OC(=O)[C@@H](N)C(C)C)cc1.Cl` [ACETAMINOPHEN VALINATE HYDROCHLORIDE] reads 1.52 h.

What is called half-life is the time needed for the level to fall by half in the phase considered.
